Test [1] deals with T1, human recombinant PRMT9 (Homo sapiens, UniProt Q6P2P2).
T1 construct: human recombinant PRMT9 (2–845; N-terminal FLAG-tag, C-terminal His6-tag); FLAG (N); His6 (C); purchased BPS BioScience 79124
T1 sequence (Q6P2P2 2-845): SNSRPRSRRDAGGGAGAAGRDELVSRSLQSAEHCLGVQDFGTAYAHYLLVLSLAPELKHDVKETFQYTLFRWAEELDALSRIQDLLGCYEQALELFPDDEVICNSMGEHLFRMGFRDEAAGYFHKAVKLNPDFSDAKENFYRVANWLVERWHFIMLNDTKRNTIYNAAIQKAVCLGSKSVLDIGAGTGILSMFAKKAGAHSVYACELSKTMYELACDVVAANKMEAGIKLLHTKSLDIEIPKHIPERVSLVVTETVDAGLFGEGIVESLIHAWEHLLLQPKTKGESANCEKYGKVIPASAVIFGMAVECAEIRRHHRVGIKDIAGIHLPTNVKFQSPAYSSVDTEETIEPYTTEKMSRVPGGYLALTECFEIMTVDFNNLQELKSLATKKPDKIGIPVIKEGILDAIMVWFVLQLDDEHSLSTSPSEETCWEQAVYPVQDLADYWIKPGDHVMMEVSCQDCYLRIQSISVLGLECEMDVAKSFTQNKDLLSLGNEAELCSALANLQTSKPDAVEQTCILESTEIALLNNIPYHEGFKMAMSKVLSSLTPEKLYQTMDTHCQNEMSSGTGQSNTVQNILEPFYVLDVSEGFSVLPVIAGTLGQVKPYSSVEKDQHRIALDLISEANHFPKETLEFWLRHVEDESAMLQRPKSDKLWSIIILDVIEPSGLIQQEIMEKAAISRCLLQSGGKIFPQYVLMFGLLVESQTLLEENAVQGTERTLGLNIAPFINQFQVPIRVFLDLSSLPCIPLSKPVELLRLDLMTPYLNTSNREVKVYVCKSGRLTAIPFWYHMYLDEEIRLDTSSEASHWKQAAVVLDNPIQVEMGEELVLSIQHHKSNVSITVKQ
Description: SPR binding to immobilized PRMT9. Particulars: 1:1 Langmuir model, 25 °C. As for the experimental part:
To characterize the effect of compound 1j on PRMT9, we resolved to evaluate its direct binding to the target protein using surface plasmon resonance (SPR). To this aim, human recombinant PRMT9 (2–845; N-terminal FLAG-tag, C-terminal His6-tag) was covalently immobilized on a sensor chip surface using an amine coupling approach and compound 1j was injected over the active and reference cells at 10 different concentrations (2-fold dilution series) from 25 to 0.05 μM using the multicycle modality. Each injection was performed with an association and a dissociation time of 90 and 180 s, respectively, and with a flow rate of 30 μL/min. To reduce false positives from detergent-sensitive, nonspecific aggregation-based binding, detergents (0.05% Tween20) were added to the running buffer in all experiments. The corrected sensorgrams were fitted simultaneously by kinetic analysis using the 1:1 Langmuir model of the BIAevaluation software to obtain equilibrium dissociation constants (KD) and kinetic dissociation (koff) and association (kon) constants, and the curve-fitting efficiency was evaluated by chi-square (χ^2). The χ^2 value of 1j was calculated to be 0.650, indicating a good fit.
SPR experiments were performed on a Biacore T200 biosensor (Cytiva). […] The curve-fitting efficiency was evaluated by the chi-square (χ^2). […]
On the technique in general: In SPR one partner is held on a chip, and binding of the other changes the refractive index at the surface.

In test [2] the target is T2, G9a/KMT1C (Homo sapiens, UniProt Q96KQ7).
T2 construct: the human recombinant G9a (residues 913–1193, C-terminus); with an N-terminal His-tag; His (N); purchased Reaction Biology Corporation
Nature of the test: HotSpot KMT activity assay, G9a. The test is classed as biochemical. Particulars: read-out: % G9a residual activity. How it is done:
Then, ^3H-SAM (final concentration 1 μM) was delivered into the reaction mixture to initiate the reaction. After incubation for 60 min at 30 °C, the reaction mixture was delivered to filter paper for detection (as assessed by scintillation). […] No inhibitor control (DMSO) was considered as showing 100% enzyme activity. Data were analyzed using Excel and GraphPad Prism 6.0 software (GraphPad Software Inc., San Diego, CA). Values obtained for each compound are mean ± SD determined for two separate experiments.

The values below come from PMC10578352, “Identification of a Protein Arginine Methyltransferase 7 (PRMT7)/Protein Arginine Methyltransferase 9 (PRMT9) Inhibitor” (Journal of Medicinal Chemistry, 2023).

T2 sequence (Q96KQ7 913-1193): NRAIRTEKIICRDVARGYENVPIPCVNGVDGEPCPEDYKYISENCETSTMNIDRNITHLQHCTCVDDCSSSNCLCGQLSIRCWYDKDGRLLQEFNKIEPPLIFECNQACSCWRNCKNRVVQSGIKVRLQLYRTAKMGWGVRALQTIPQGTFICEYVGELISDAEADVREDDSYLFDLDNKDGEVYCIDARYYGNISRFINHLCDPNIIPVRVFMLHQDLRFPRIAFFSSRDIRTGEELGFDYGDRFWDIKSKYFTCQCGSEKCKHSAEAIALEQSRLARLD

Turning to `COC(=O)c1cc(O)c2cc(NC(=O)NCCCNC(=N)NC[C@H]3O[C@@H](n4cnc5c(N)ncnc54)[C@H](O)[C@@H]3O)cc(C(F)(F)F)c2c1` [1j, Methyl 6-(3-(3-(3-(((2R,3S,4R,5R)-5-(6-Amino-9H-purin-9-yl)-3,4-dihydroxytetrahydrofuran-2-yl)methyl)guanidino)propyl)ureido)-4-hydroxy-8-(trifluoromethyl)-2-naphthoate], the “PRMT9 SPR residence time (τR = 1/koff)” value in test [1] is 500 s. For the same molecule, the Kd (commonly a measure of binding affinity in units of concentration) in test [1] (KD = koff/kon) was determined as 0.188 µM. In test [2] (10 μM), the remaining activity at 10 µM came to 111 ± 4.3%. Also, the remaining activity at 100 µM in test [2] (100 μM) was 70.93 ± 0.31%.
